Assay results as given in the METLIN SMRT retention time set (Domingo-Almenara et al. 2019).

Assay: gradient 5% acetonitrile 3 min, to 50% in 2 min, to 85% in 15 min, held 3 min, 100 µL/min
Conditions: column: Zorbax Extend-C18 2.1 x 50 mm; eluents: water / acetonitrile, 0.1% formic acid
Method in brief: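 Retention times of pure standards were taken from adduct peaks that were selected by computer and manually inspected. Over 3 months, mixtures of ~100 molecules were run by HPLC–quadrupole time-of-flight mass spectrometry in positive and negative ionization mode. The Zorbax Extend-C18 column (2.1 × 50 mm, 1.8 μm) ran at 100 μL/min in water and acetonitrile, each containing 0.1% formic acid, with 40 μL dead volume and 900 μL dwell volume.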

Structure (SMILES) | RP-LC retention time [s]
Cc1ccccc1NS(=O)(=O)c1cc2n(c1)CCCNC2=O | 646
Cc1cc(C)cc(NC(=O)Cc2nc(-c3ccccn3)n[nH]2)c1 | 669
Nc1sc(SCC(=O)Nc2ccc3c(c2)OCO3)nc1-c1ccccc1 | 797
CCc1nc(-c2csc(S(=O)(=O)N3CCC(C(=O)Nc4cccc(C)n4)CC3)c2)no1 | 838
COC(=O)c1ccc(C(=O)OC)c(NC(=O)CSc2ncnc3sc(C)c(C)c23)c1 | 1130
CCCc1nnsc1C(=O)Nc1ccc2c(c1)CN(C(=O)c1ccco1)CC2 | 786
CC(C)c1nccn1C1CN(S(=O)(=O)c2cccc(F)c2)C1 | 640
CC(C)c1cc(C(=O)Nc2ccccc2)nn1C1CCS(=O)(=O)C1 (stereo not given) | 845
Cc1cc(N2CCN(C(=O)c3cc4ccccc4o3)CC2)ncn1 | 559
COc1ccc(NC(=O)C(C)n2cnc3nc4c(cc3c2=O)CCCC4)cc1OC (stereo not given) | 685
Cc1cccc(-n2c(=O)c3sccc3n(Cc3nc(-c4ccc(C(C)(C)C)cc4)no3)c2=O)c1 | 1260
O=C(c1ccccn1)N1CCCn2cc(-c3ccccc3)nc21 | 620
Cc1cc(C)cc(-c2nnc(Cc3nc(-c4ccncc4)no3)o2)c1 | 886
O=C(Nc1ccccc1Br)N1CCN(CCn2c(C(F)(F)F)nc3cccnc32)CC1 | 657
O=C(Nc1ccc2c(c1)OCO2)C1CCN(S(=O)(=O)c2cc(C(=O)N3CCCC3)cs2)CC1 | 770
CCCN1C(=O)COc2ccc(-c3csc(NC(=O)c4ccc(Br)cc4)n3)cc21 | 1160
COc1ccc(-c2noc(C3CCCN3C(=O)Nc3cccc(C)c3C)n2)cc1 (stereo not given) | 858
COc1cc(C(=O)Nc2ccc(-c3cn4cccnc4n3)cc2)cc(OC)c1OC | 634
O=C(NC1CCCC1)C1CCCN(S(=O)(=O)Cc2ccc(Cl)cc2)C1 (stereo not given) | 910
COc1cc(NC(=O)CSc2ncc(-c3cccc(Cl)c3)o2)cc(OC)c1OC | 896
CCc1nc(-c2csc(S(=O)(=O)N3CCC(C(=O)Nc4ccc(F)c(Cl)c4)CC3)c2)no1 | 1150
CCN1C(=O)C2CC3(CCN(C(=O)C4CCCCC4)CC3)CN2C1=O (stereo not given) | 738
N#Cc1cccc(NC(=O)C2CCN(S(=O)(=O)c3cc(-c4noc(C5CCC5)n4)cs3)CC2)c1 | 1070

Structure (SMILES) | RP-LC retention time [s]
CCOC(=O)C(=O)Cc1nc2ccccc2s1 | 871
Cc1ccccc1NS(=O)(=O)c1cc2n(c1)CCN(CC(C)C)C2=O | 795
COCCNC(=O)C1CCc2sc(C(=O)N3CCCCCC3)cc2C1 (stereo not given) | 682
CC(C)CN(Cc1cccnc1)C1CN(C(=O)NCc2ccc(F)cc2)C1 | 640
Cc1ccc(C(CNC(=O)c2cc(=O)c3ccccc3o2)N(C)C)cc1 (stereo not given) | 626
CCOC(=O)c1sc(NC(=O)C2CC2)nc1-c1ccccc1 | 942
Cc1cccc(CNC(=O)c2cc3n(n2)CC(C)(C(=O)NCCC(C)C)N(C)C3=O)c1 (stereo not given) | 801
CCCC(C)NC(=O)c1ccc2c(c1)CCCN2S(C)(=O)=O (stereo not given) | 827
O=C(Cn1nc(Cc2cccnc2)c2ccccc2c1=O)NCC1COc2ccccc2O1 (stereo not given) | 640
COc1ccc(NC2=NCCO2)c2c1CCCC2 | 640
Cn1nc2n(c1=O)CCC(NC(=O)c1cc(C3CC3)[nH]n1)CC2 (stereo not given) | 586
CC(C)c1nncn1C1CCN(S(=O)(=O)c2cccc(Cl)c2)CC1 | 767
CCCOC(=O)c1cnc2nc(C)ccc2c1NCc1ccc(OC)c(OC)c1 | 701
CCc1nnc2cc(N3CCN(C(=O)c4ccc(C(C)C)cc4)CC3)cnn12 | 731
O=C(Cn1ncc2c(N3CCN(c4ccccn4)CC3)ncnc21)Nc1ccc(Cl)cn1 | 616
Cc1ccc(S(=O)(=O)NC2CCN(C(=O)Cc3c[nH]c4ccccc34)CC2)cc1 | 775
COc1ccc(-c2noc(C3CC(=O)N(c4ccc(C)c(C)c4)C3)n2)cc1 (stereo not given) | 1050
O=C(NC1CCCC1)C1CCCN(c2nc3ccsc3c(=O)n2Cc2ccc(F)cc2)C1 (stereo not given) | 913
O=C(C1CCN(c2nnc(-c3ccccc3)o2)CC1)N1CCCCCC1 | 810
Cn1c(=O)c(NCCc2c[nH]c3ccccc23)nc2ccncc21 | 619
CCc1ccc(CNC(=O)CN2C(=O)NC3(CCCCC3)C2=O)cc1 | 792
COc1ccc(-c2noc(C3CCCN3C(=O)Nc3ccc(F)c(Cl)c3)n2)cc1 (stereo not given) | 1030
